This note sets out measurements from patent US8759365B2, “Organic compounds” (Novartis AG, priority 2007, dated 2014).

By IC50 is commonly meant the concentration that gives 50% inhibition.

In this test the target is rhCETP (Homo sapiens (Human), UniProt P11597). The test can be described thus: CETP in vitro assay (CETP Activity Kit, fluorescence, rhCETP). It is filed as biochemical. The settings on record: CETP inhibition; Table 1 does not name the assay; read-out: IC50 (nM), Inhibitory Activity of Compounds. Here is the method: CETP Activity Kit (#RB-RPAK) was purchased from Roar Biochemical, Inc. (New York, N.Y., USA). To each well of a 96-well NBS half-area plate (costar #3686), […] of the donor solution, 1 μL of the acceptor solution and 5 μL compound solution diluted in 100% DMSO were added in a 38 μL of buffer containing 10 mM Tris, 150 mM NaCl and 2 mM EDTA, pH 7.4. Then, the plate was sealed with Themowell™ Sealers (costar #6524) and followed by a mixing on a plate shaker by MICROPLATE MIXER MPX-96 (IWAKI) at power 3 for 10 sec at room temperature. After 10-min incubation at 37° C., the reaction was started by adding 5 μL of rhCETP solution (Cardiovascular Target, New York, N.Y., USA) and mixed on the plate shaker for 10 sec, then the fluorescence intensity at 0 min was measured by a ARVO SX (Perkin Elmerr, USA) at excitation wavelength of 465 nm and emission wavelength of 535 nm. After 120 min-incubation at 37° C., fluorescence intensity was measured again. The inhibition of rhCETP activity by a compound was calculated by the following calculation. Inhibition %={1−(F120−F0)/(f120−f0)}×100 F: measured fluorescence intensity with compound at 0 or 120 min. f: measured fluorescence intensity of without compound at 0 or 120 min.
Chain of rhCETP (P11597 18-493): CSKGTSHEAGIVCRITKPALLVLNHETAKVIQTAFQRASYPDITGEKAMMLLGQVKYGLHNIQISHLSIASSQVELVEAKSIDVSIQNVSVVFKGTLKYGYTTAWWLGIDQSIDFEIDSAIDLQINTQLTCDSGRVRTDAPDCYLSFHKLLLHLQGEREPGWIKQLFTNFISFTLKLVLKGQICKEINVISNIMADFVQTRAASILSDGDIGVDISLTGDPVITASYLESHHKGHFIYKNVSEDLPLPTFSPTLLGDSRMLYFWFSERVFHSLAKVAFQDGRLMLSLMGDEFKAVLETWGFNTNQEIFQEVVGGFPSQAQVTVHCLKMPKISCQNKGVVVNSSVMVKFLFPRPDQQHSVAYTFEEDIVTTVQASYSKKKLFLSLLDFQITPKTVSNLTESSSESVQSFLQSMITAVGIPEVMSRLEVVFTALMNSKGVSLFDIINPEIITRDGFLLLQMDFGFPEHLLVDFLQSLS
The IC50 values are determined from the dose-effect curve by Origin software. IC50 values, especially from about 0.1 nM to about 50 μM, are determined for the compounds of the present invention or a pharmaceutically acceptable salt thereof.
For the compound `CC[C@@H]1C[C@H](N(Cc2cc(C(F)(F)F)cc(C(F)(F)F)c2)c2ncc(-c3cnn(C)c3)cn2)CN1C(=O)C1CCCCC1` [Example 5-3, ((2R,4S)-4-{(3,5-Bis-trifluoromethyl-benzyl)-[5-(1-methyl-1H-pyrazol-4-yl)-pyrimidin-2-yl]-amino}-2-ethyl-pyrrolidin-1-yl)-cyclohexyl-methanone], the 50% inhibitory concentration (IC50) amounted to 92 nM.
As for `CC[C@@H]1C[C@H](N(Cc2cc(C(F)(F)F)cc(C(F)(F)F)c2)c2ncc(-c3cnn(C)c3)cn2)CN1C(=O)OCC(C)C` [Example 6-1, (2R,4S)-4-{(3,5-Bis-trifluoromethyl-benzyl)-[5-(1-methyl-1H-pyrazol-4-yl)-pyrimidin-2-yl]-amino}-2-ethyl-pyrrolidine-1-carboxylic acid isobutyl ester], the IC50 came out at 69 nM.
`CC[C@@H]1C[C@H](N(Cc2cc(C(F)(F)F)cc(C(F)(F)F)c2)c2ncc(-c3cnn(C)c3)cn2)CN1C(=O)OCC(C)(C)C` [Example 6-2, (2R,4S)-4-{(3,5-Bis-trifluoromethyl-benzyl)-[5-(1-methyl-1H-pyrazol-4-yl)-pyrimidin-2-yl]-amino}-2-ethyl-pyrrolidine-1-carboxylic acid 2,2-dimethyl-propyl ester]: the IC50 came out at 47 nM.
For `CC[C@@H]1C[C@H](N(Cc2cc(C(F)(F)F)cc(C(F)(F)F)c2)c2ncc(-c3cnn(C)c3)cn2)CN1C(=O)OC1CCOCC1` [Example 7-4, (2R,4S)-4-{(3,5-Bis-trifluoromethyl-benzyl)-[5-(1-methyl-1H-pyrazol-4-yl)-pyrimidin-2-yl]-amino}-2-ethyl-pyrrolidine-1-carboxylic acid tetrahydro-pyran-4-yl ester], the 50% inhibitory concentration (IC50) turned out to be 60 nM.
With `CC[C@@H]1C[C@H](N(Cc2cc(C(F)(F)F)cc(C(F)(F)F)c2)c2ncc(-c3cnn(C)c3)cn2)CN1C(=O)OCC1CCOCC1` [Example 7-6, (2R,4S)-4-{(3,5-Bis-trifluoromethyl-benzyl)-[5-(1-methyl-1H-pyrazol-4-yl)-pyrimidin-2-yl]-amino}-2-ethyl-pyrrolidine-1-carboxylic acid tetrahydro-pyran-4-ylmethyl ester], the IC50 amounted to 46 nM.
Turning to `CCC(CC)OC(=O)N1C[C@@H](N(Cc2cc(C(F)(F)F)cc(C(F)(F)F)c2)c2ncc(-c3cnn(C)c3)cn2)C[C@H]1CC` [Example 9-1, (2R,4S)-4-{(3,5-Bis-trifluoromethyl-benzyl)-[5-(1-methyl-1H-pyrazol-4-yl)-pyrimidin-2-yl]-amino}-2-ethyl-pyrrolidine-1-carboxylic acid 1-ethyl-propyl ester], the IC50 was determined as 41 nM.
Take `CC[C@@H]1C[C@H](N(Cc2cc(C(F)(F)F)cc(C(F)(F)F)c2)c2ncc(-c3cnn(C)c3)cn2)CN1C(=O)OCC(F)(F)F` [Example 9-2, (2R,4S)-4-{(3,5-Bis-trifluoromethyl-benzyl)-[5-(1-methyl-1H-pyrazol-4-yl)-pyrimidin-2-yl]-amino}-2-ethyl-pyrrolidine-1-carboxylic acid 2,2,2-trifluoro-ethyl ester]: the concentration for half-maximal inhibition (IC50) was determined as 59 nM.
For `CC[C@@H]1C[C@H](N(Cc2cc(C(F)(F)F)cc(C(F)(F)F)c2)c2ncc(-c3cnn(C)c3)cn2)CN1C(=O)OC1CCCC1` [Example 9-3, (2R,4S)-4-{(3,5-Bis-trifluoromethyl-benzyl)-[5-(1-methyl-1H-pyrazol-4-yl)-pyrimidin-2-yl]-amino}-2-ethyl-pyrrolidine-1-carboxylic acid cyclopentyl ester], the IC50 is 70 nM.
Take `CC[C@@H]1C[C@H](N(Cc2cc(C(F)(F)F)cc(C(F)(F)F)c2)c2ncc(-c3cnn(C)c3)cn2)CN1C(=O)O[C@H](C)CC` [Example 9-4, (2R,4S)-4-{(3,5-Bis-trifluoromethyl-benzyl)-[5-(1-methyl-1H-pyrazol-4-yl)-pyrimidin-2-yl]-amino}-2-ethyl-pyrrolidine-1-carboxylic acid (R)-sec-butyl ester]: the IC50 amounted to 21 nM.
`CC[C@@H]1C[C@H](N(Cc2cc(C(F)(F)F)cc(C(F)(F)F)c2)c2ncc(-c3cnn(C)c3)cn2)CN1C(=O)O[C@@H](C)CC` [Example 9-5, (2R,4S)-4-{(3,5-Bis-trifluoromethyl-benzyl)-[5-(1-methyl-1H-pyrazol-4-yl)-pyrimidin-2-yl]-amino}-2-ethyl-pyrrolidine-1-carboxylic acid (S)-sec-butyl ester]: the half-maximal inhibitory concentration (IC50) worked out at 54 nM.
The result for `CC[C@@H]1C[C@H](N(Cc2cc(C(F)(F)F)cc(C(F)(F)F)c2)c2ncc(-c3cnn(C)c3)cn2)CN1C(=O)OCC1(CC)COC1` [Example 9-6, (2R,4S)-4-{(3,5-Bis-trifluoromethyl-benzyl)-[5-(1-methyl-1H-pyrazol-4-yl)-pyrimidin-2-yl]-amino}-2-ethyl-pyrrolidine-1-carboxylic acid 3-ethyl-oxetan-3-ylmethyl ester] reads 70 nM; that for `CC[C@@H]1C[C@H](N(Cc2cc(C(F)(F)F)cc(C(F)(F)F)c2)c2ncc(N3CC[C@H](O)C3)cn2)CN1C(=O)OC(C)C` [Example 11, (2R,4S)-4-{(3,5-Bis-trifluoromethyl-benzyl)-[5-((S)-3-hydroxy-pyrrolidin-1-yl)-pyrimidin-2-yl]-amino}-2-ethyl-pyrrolidine-1-carboxylic acid isopropyl ester], 72 nM.
The result for `CC[C@@H]1C[C@H](N(Cc2cc(C(F)(F)F)cc(C(F)(F)F)c2)c2ncc(-c3cn[nH]c3)cn2)CN1C(=O)OC(C)C` [Example 14, (2R,4S)-4-{(3,5-Bis-trifluoromethyl-benzyl)-[5-(1H-pyrazol-4-yl)-pyrimidin-2-yl]-amino}-2-ethyl-pyrrolidine-1-carboxylic acid isopropyl ester] reads 34 nM; that for `CC[C@@H]1C[C@H](N(Cc2cc(C(F)(F)F)cc(C(F)(F)F)c2)c2ncc(-c3cnn(C)c3)cn2)CN1C(=O)N1CCCC1` [Example 16, ((2R,4S)-4-{(3,5-Bis-trifluoromethyl-benzyl)-[5-(1-methyl-1H-pyrazol-4-yl)-pyrimidin-2-yl]-amino}-2-ethyl-pyrrolidin-1-yl)-pyrrolidin-1-yl-methanone], 39 nM.
Turning to `CC[C@@H]1C[C@H](N(Cc2cc(C(F)(F)F)cc(C(F)(F)F)c2)c2ncc(-c3cnn(C)c3)cn2)CN1C(=O)N1CCCCC1` [Example 16-2, ((2R,4S)-4-{(3,5-Bis-trifluoromethyl-benzyl)-[5-(1-methyl-1H-pyrazol-4-yl)-pyrimidin-2-yl]-amino}-2-ethyl-pyrrolidin-1-yl)-piperidin-1-yl-methanone], the concentration for half-maximal inhibition (IC50) was 25 nM.
Turning to `CC[C@@H]1C[C@H](N(Cc2cc(C(F)(F)F)cc(C(F)(F)F)c2)c2ncc(-c3cnn(C)c3)cn2)CN1C(=O)N1CCOCC1` [Example 17, ((2R,4S)-4-{(3,5-Bis-trifluoromethyl-benzyl)-[5-(1-methyl-1H-pyrazol-4-yl)-pyrimidin-2-yl]-amino}-2-ethyl-pyrrolidin-1-yl)-morpholin-4-yl-methanone], the IC50 is 32 nM.
As for `CC[C@@H]1C[C@H](N(Cc2cc(C(F)(F)F)cc(C(F)(F)F)c2)c2ncc(-c3cnn(C)c3)cn2)CN1C(=O)N(C)C` [Example 18, (2R,4S)-4-{(3,5-Bis-trifluoromethyl-benzyl)-[5-(1-methyl-1H-pyrazol-4-yl)-pyrimidin-2-yl]-amino}-2-ethyl-pyrrolidine-1-carboxylic acid dimethylamide], the 50% inhibitory concentration (IC50) was 63 nM.
The result for `CC[C@@H]1C[C@H](N(Cc2cc(C(F)(F)F)cc(C(F)(F)F)c2)c2ncc(N3CC[C@H](O)C3)cn2)CN1c1nc(N2CCC(O)CC2)ncc1Cl` [Example 23-6] reads 110 nM; that for `CC[C@@H]1C[C@H](N(Cc2cc(C(F)(F)F)cc(C(F)(F)F)c2)c2ncc(-c3cnn(C)c3)cn2)CN1c1nc(N2CCC(O)CC2)ncc1Cl` [Example 23-10], 30 nM.
